# Measurements from patent US20150065440A1 (Progen Pharmaceuticals Limited, priority 2007, published 2015).
# Where a name gives a salt, the structure may show the parent alone. Read-outs that look alike come from different tables or passages of the source.
# Key:
# HSV-2 = assay: Viral plaque number-reduction assay, HSV-2; conditions: Human alphaherpesvirus 2, read-out: HSV-2 IC50
# Method: (§1) African green monkey kidney (GMK AH1) cells^46 were cultured in Eagle's minimum essential medium (EMEM) supplemented with 2% calf serum, 0.05% Primaton RL substance (Kraft Inc., Norwich, USA) and antibiotics. Human epidermoid carcinoma (HEp-2) cells were cultured in Dulbecco's modified EMEM (DMEM) supplemented with 10% fetal calf serum and antibiotics. […] The RSV strain A-2^50 was used. The RSV stock was prepared as described by Hallak et al.^51 and stored at −70° C. in the presence of 40% sucrose^52.
# (§2) The viral infectivity (the plaque number-reduction) assay and the plaque size-reduction assay were carried out as described previously^17. […] Subsequently, the cells were washed with 2 mL of EMEM and overlaid with 1% methylcellulose solution in EMEM. The plaques were visualized by staining with crystal violet solution after 2 (HSV-2) or 3 (HSV-1) days of incubation at 37° C. […] When the compounds were screened for anti-HSV or anti-RSV activity, mixtures of 200 PFU of the virus and the test compound (100 μg/mL) in serum-free EMEM were incubated for 10 min at room temperature before addition to cells and during the entire period of viral infection of cells and the development of viral plaques. In the plaque size-reduction assay, the compounds were added to cells (in methylcellulose overlay medium) after 2 h period of virus infection of cells in the absence of the inhibitor. After 2-3 days of incubation at 37° C., the viral plaques were visualized by staining the cells with 1% solution of crystal violet. For each compound tested, the images of twenty neighboring plaques were captured using a Leica DC300 digital camera attached to a Leitz-Wetzlar Diavert microscope. The area of each plaque was determined using IM500 image software (Leica). Similar protocols were used for RSV, except that the assays were performed in HEp-2 cells and DMEM supplemented with 2% heat-inactivated fetal calf serum was used instead of EMEM.
# [1] = test system: normal pooled human plasma; assay: Anticoagulant activity, Heptest; conditions: 0.1 mg/mL in normal pooled human plasma
# VEGF = target: T1, VEGF (Homo sapiens, UniProt P15692); assay: Growth factor binding assay (SPR solution affinity), VEGF; conditions: HBS-EP buffer, 25° C.
# T1 sequence (P15692 207-395): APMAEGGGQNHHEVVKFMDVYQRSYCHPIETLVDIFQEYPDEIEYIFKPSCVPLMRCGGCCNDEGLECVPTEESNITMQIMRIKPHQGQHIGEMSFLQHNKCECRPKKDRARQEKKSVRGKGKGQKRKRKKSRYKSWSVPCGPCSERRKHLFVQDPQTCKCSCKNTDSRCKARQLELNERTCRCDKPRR
# Method: (§3) Binding affinities of compounds for the growth factors FGF-1, FGF-2 and VEGF were measured using a surface plasmon resonance (SPR) based solution affinity assay.^9 Heparin-coated sensorchips used for this assay were prepared via immobilisation of biotinylated BSA-heparin on a streptavidin-coated sensorchip, or via aldehyde coupling using either adipic acid dihydrazide or 1,4-diaminobutane.^9 For each Kd measurement, solutions were prepared containing a fixed concentration of protein and varying concentrations of the ligand in buffer. Ligands binding to FGF-1 and VEGF were measured in HBS-EP buffer (10 mM HEPES, pH 7.4, 150 mM NaCl, 3.0 mM EDTA and 0.005% (v/v) polysorbate 20), while binding to FGF-2 was measured in HBS-EP buffer containing 0.3 M NaCl. Prior to injection, samples were maintained at 4° C. to maximise protein stability. For each assay mixture, 50-200 μL of solution was injected at 5-40 μL/min and the relative binding response measured. All surface binding experiments were performed at 25° C. The surface was regenerated by injection of 40 μL of 4M NaCl at 40 μL/min, followed by injection of 40 μL of buffer at 40 μL/min.
# (§4) Sensorgram data were analysed using the BIAevaluation software (BIAcore) and Kd values determined as previously described.^9 Where Kd values were measured in duplicate, the values represent the average of the duplicate measurements.
# [2] = test system: HUVEC proliferation induced by VEGF; assay: Growth factor induced endothelial cell proliferation assay, VEGF; assay type: cell-based, human; conditions: Homo sapiens, HUVEC, 72 h; read-out: VEGF (IC50) inhibition of HUVEC proliferation
# Description: (§5) HUVEC cells were maintained and subcultured according to standard cell culture protocols essentially as described by Lonza. Briefly, cells were maintained in Lonza endothelial growth media (EGM) with recommended supplements and growth factors (VEGF, FGF2, EFG, IGF, hydrocortisone, fetal bovine serum (FBS), ascorbic acid, heparin and gentamicin). Cells were subcultured when they reached 70-80% confluence by trypsinisation and reseeding in fresh growth medium in new culture vessels at 2500 to 5000 cells/cm^2 of vessel surface area. Cell counts were performed using a haemocytometer and viable cells were visualized with trypan blue.
# (§6) Medium for the proliferation studies was prepared using EGM with 2% FBS and gentamicin only. In a later study, complete EGM was used for the VEGF groups in an attempt to enhance the proliferative index of VEGF-stimulated groups. For the tube formation assay, complete medium was used with only heparin omitted. Compounds under investigation were weighed out from powder stocks and diluted in PBS to 10 mM stock solutions and stored at −80° C. For experiments, compounds were subsequently diluted in EBM-2 medium (supplemented with 2% FBS and gentamicin) to various working concentration as required.
# (§7) In the first of a series of experiments, the assay was further optimized by examining the cell density and growth factor concentration required to induce maximal proliferation by growth factors. Briefly, 100 μL of cells was added to each well at concentrations between 1-3×10^3 per well. Growth factors and test compounds were then added in 50 μL volumes at specified concentrations to obtain a final volume of 200 μL. Following incubation for 70 h, 20 μL of the CellTitre 96® Aqueous One Solution Cell Proliferation Assay (Promega) was added for 2 h prior to reading the absorbance at 490 nm to obtain OD values.
# FGF-1 = FGF-1 (Homo sapiens, UniProt P05230); assay: Growth factor binding assay (SPR solution affinity), FGF-1
# Method: as §3, §4
# [3] = test system: pooled normal human plasma; assay: Anticoagulant activity, APTT; conditions: 0.1 mg/mL in normal pooled human plasma
# Method: APTT measurements were performed on a STAGO STA-Compact Coagulation Analyser using standard protocols according to the manufacturer's instructions. Unfractionated heparin (UFH) was used as a control.
# [4] = test system: HUVEC proliferation induced by FGF-1; assay: Growth factor induced endothelial cell proliferation assay, FGF-1; assay type: cell-based, human; conditions: Homo sapiens, HUVEC, 72 h; read-out: FGF-1 (IC50) inhibition of HUVEC proliferation
# Description: as §5, §6, §7
# [5] = test system: HUVEC proliferation induced by FGF-2; assay: Growth factor induced endothelial cell proliferation assay, FGF-2; assay type: cell-based, human; conditions: Homo sapiens, HUVEC, 72 h; read-out: FGF-2 (IC50) inhibition of HUVEC proliferation
# Description: as §5, §6, §7
# RSV = assay: Viral plaque number-reduction assay, RSV; conditions: human respiratory syncytial virus, read-out: RSV IC50
# Method: as §1, §2
# [6] = target: T2, recombinant human heparanase (Homo sapiens, UniProt Q9Y251); assay: Heparanase inhibition assay (fondaparinux cleavage, WST-1)
# T2 sequence (Q9Y251 158-543 limits assumed): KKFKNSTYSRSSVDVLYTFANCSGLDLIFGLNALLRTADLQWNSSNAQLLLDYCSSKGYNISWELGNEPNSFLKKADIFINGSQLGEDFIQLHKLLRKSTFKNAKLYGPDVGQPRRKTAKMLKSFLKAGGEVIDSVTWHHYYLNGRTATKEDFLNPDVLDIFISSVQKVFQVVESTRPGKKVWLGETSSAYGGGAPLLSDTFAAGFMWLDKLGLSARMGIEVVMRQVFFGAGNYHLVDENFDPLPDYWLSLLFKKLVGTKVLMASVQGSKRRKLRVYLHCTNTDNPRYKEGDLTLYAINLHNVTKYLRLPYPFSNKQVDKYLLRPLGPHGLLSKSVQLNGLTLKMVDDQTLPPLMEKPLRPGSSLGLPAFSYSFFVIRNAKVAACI
# T2 sequence (Q9Y251 36-109 limits assumed): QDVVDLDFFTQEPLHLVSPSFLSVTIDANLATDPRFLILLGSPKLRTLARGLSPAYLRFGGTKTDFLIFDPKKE
# FGF-2 = FGF-2 (Homo sapiens, UniProt P09038); assay: Growth factor binding assay (SPR solution affinity), FGF-2
# Method: as §3, §4
# [7] = SPR, HBS-EP buffer, 25° C., read-out: Kd FGF-1
# [8] = SPR, HBS-EP buffer containing 0.3 M NaCl, 25° C., read-out: Kd FGF-2
# FGF-2, sequence (P09038 143-288, species assumed): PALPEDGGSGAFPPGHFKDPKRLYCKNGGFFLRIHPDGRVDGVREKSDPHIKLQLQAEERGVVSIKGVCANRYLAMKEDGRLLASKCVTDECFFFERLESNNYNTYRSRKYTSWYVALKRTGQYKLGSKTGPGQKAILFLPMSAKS
# FGF-1, sequence (P05230 whole entry, species assumed): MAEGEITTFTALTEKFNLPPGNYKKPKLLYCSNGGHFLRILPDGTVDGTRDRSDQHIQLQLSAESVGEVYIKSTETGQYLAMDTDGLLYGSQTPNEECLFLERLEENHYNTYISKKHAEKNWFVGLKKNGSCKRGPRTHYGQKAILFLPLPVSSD
Compound,IC50 (HSV-2) [µg/mL],Heptest [1] [s],Kd (VEGF) [µM],IC50 [2] [µM],Kd (FGF-1; [7]) [µM],APTT [3] [s],IC50 [4] [µM],IC50 [5] [µM],IC50 (RSV) [µg/mL],"Ki ([6]; read-out: Ki Heparanase, IC50 converted into Ki, fondaparinux 100 μM, pH 5.0) [µM]",Kd (FGF-2) [µM],Kd (FGF-1) [µM],Ki [6] [µM],Kd (FGF-2; [8]) [µM]
"CC(C)CCC[C@@H](C)[C@H]1CC[C@H]2[C@@H]3CC[C@H]4C[C@@H](O[C@H]5O[C@H](COS(=O)(=O)O)[C@@H](OS(=O)(=O)O)[C@H](OS(=O)(=O)O)[C@@H]5OS(=O)(=O)O)CC[C@]4(C)[C@H]3CC[C@]12C [Compound 79, 3β-Cholestanyl 2,3,4,6-tetra-O-sulfonato-α-D-mannopyranoside tetrasodium salt]",0.28,23.9,3 ± 0.4,2.24,3.6 ± 0.6,36.1,2.2,2.9,2.9,0.111 ± 0.028,–,–,–,–
"CC(C)CCCC(C)C1CCC2C3CCC4CC(OCc5cn(C6OC(COS(=O)(=O)O)C(OC7OC(COS(=O)(=O)O)C(OS(=O)(=O)O)C(OS(=O)(=O)O)C7OS(=O)(=O)O)C(OS(=O)(=O)O)C6OS(=O)(=O)O)nn5)CCC4(C)C3CCC12C [Compound 93, 4-(Cholestan-3β-yl-oxymethyl) [1,2,3]triazol-1-yl 2,3,4,6-tetra-O-sulfo-β-D-galactopyranosyl-(1→4)-2,3,6-tri-O-sulfo-β-D-glucopyranoside, heptasodium salt]",0.27,25.3,1.6 ± 0.3,2.62,–,39.6,2.69,2.43,0.4,–,1.8 ± 0.3,0.61 ± 0.21,0.03 ± 0.007,–
"CC(C)CCC[C@@H](C)[C@H]1CC[C@H]2[C@@H]3CC[C@H]4C[C@@H](OCc5cn([C@@H]6O[C@H](COS(=O)(=O)O)[C@@H](O[C@H]7O[C@H](COS(=O)(=O)O)[C@@H](OS(=O)(=O)O)[C@H](OS(=O)(=O)O)[C@H]7OS(=O)(=O)O)[C@H](OS(=O)(=O)O)[C@H]6OS(=O)(=O)O)nn5)CC[C@]4(C)[C@H]3CC[C@]12C [Compound 97, 4-(Cholestan-3β-yl-oxymethyl) [1,2,3]triazol-1-yl 2,3,4,6-tetra-O-sulfo-α-D-glucopyranosyl-(1→4)-2,3,6-tri-O-sulfo-β-D-glucopyranoside, heptasodium salt]",0.26,26.7,1.93 ± 0.23,1.13,0.84 ± 0.13,40.3,4.09,4.17,0.58,–,–,–,–,3.4 ± 0.3
"CC(C)CCCC(C)C1CCC2C3CCC4CC(OC5OC(COS(=O)(=O)O)C(OC6OC(COS(=O)(=O)O)C(OS(=O)(=O)O)C(OS(=O)(=O)O)C6OS(=O)(=O)O)C(OS(=O)(=O)O)C5OS(=O)(=O)O)CCC4(C)C3CCC12C [Compound 102, 3′-Cholestanyl 2,3,4,6-tetra-O-sulfo-α-D-glucopyranosyl-(1→4)-2,3,6-tri-O-sulfo-β-D-glucopyranoside, heptasodium salt]",0.43,23.9,1.2 ± 0.4,5.17,–,38.6,3.95,> 10,1.8,–,–,0.56 ± 0.03,–,2.2 ± 0.4
"CC(C)CCC[C@@H](C)[C@H]1CC[C@H]2[C@@H]3CCC4CC(O[C@@H]5O[C@H](COS(=O)(=O)O)[C@@H](O[C@@H]6O[C@H](COS(=O)(=O)O)[C@@H](OS(=O)(=O)O)[C@H](OS(=O)(=O)O)[C@H]6OS(=O)(=O)O)[C@H](OS(=O)(=O)O)[C@H]5OS(=O)(=O)O)CC[C@]4(C)[C@H]3CC[C@]12C (stereo partly drawn) [Compound 107, 3′-Cholestanyl 2,3,4,6-tetra-O-sulfo-β-D-glucopyranosyl-(1→4)-2,3,6-tri-O-sulfo-β-D-glucopyranoside, heptasodium salt]",0.43,25.3,1.35 ± 0.07,5.56,–,38.8,5.75,5.59,1.9,–,–,–,–,–
"CC(C)CCC[C@@H](C)[C@H]1CC[C@H]2[C@@H]3CCC4CC(O[C@@H]5O[C@H](COS(=O)(=O)O)[C@@H](O[C@@H]6O[C@H](COS(=O)(=O)O)[C@H](OS(=O)(=O)O)[C@H](OS(=O)(=O)O)[C@H]6OS(=O)(=O)O)[C@H](OS(=O)(=O)O)[C@H]5OS(=O)(=O)O)CC[C@]4(C)[C@H]3CC[C@]12C (stereo partly drawn) [Compound 112, 3′-Cholestanyl 2,3,4,6-tetra-O-sulfo-β-D-galactopyranosyl-(1→4)-2,3,6-tri-O-sulfo-β-D-glucopyranoside, heptasodium salt]",0.45,25.4,0.43 ± 0.14,–,–,38.9,–,–,2.4,–,–,0.9 ± 0.15,–,2.1 ± 0.3
